Assay results taken from publication PMC5845353, “The selective cathepsin K inhibitor MIV-711 attenuates joint pathology in experimental animal models of osteoarthritis” (Journal of Translational Medicine, 2018).
Where “and” joins values, the source holds several entries; their conditions need not be identical. Equal entries are not always repeated.

Legend:
Assay type in all cases: in vivo
[1] = tested on: dogs subjected to partial medial meniscectomy; assay: Dog partial medial meniscectomy study, cartilage area image analysis
Procedure: In order to quantitate and compare the cartilage matrix preservation, cartilage area measurements were taken from the most severely affected section of each animal. In this section, the most severely affected area - generally zone 2 - is analyzed at 25x magnification. Photomicrographs were taken with a digital microscope camera, and analyzed with appropriate software. The following measurements were taken:
Total area from the tidemark to the surface (or projected surface in degenerated areas), extending from the axial to abaxial aspects of the medial tibial plateau zones in the most severely affected area (generally zone 2)
Area of non-viable matrix (cartilage with less than 50% chondrocytes, proteoglycan, and intact collagen) and no matrix within the total area of zone 2 or most severely affected area in the photomicrograph
Area of no matrix within the total area being analyzed
The area of non-viable matrix in zone under analysis was subtracted from the total area in the photomicrograph to get the area of viable matrix in this area, and the area of no matrix was subtracted from the total area to get the area of any matrix (collagen matrix with or without chondrocytes and proteoglycan). These two values were then compared back to the total area to derive the % viable area and the % any matrix in this area of greatest lesion severity, which were compared between groups.

[2] = Plasma concentrations of MIV-711 in ACLT rabbits (LC-MS/MS); conditions: rabbit plasma
Procedure: Starting 1 week after sham operation or ACLT, animals were dosed daily for 7 weeks by oral gavage with either MIV-711 (synthesized by Medivir and given as a suspension in 1% Methocel A4C in water) or vehicle (1% Methocel A4C in water) at a dose volume of 4 mL/kg. The four treatment groups (n = 7 in each group) were: (1) sham + vehicle; (2) ACLT + vehicle; (3) ACLT + MIV-711, 30 µmol/kg (low dose) and (4) ACLT + MIV-711, 100 µmol/kg (high dose).
Twelve blood samples of 1 mL each were collected from each animal for determination of MIV-711 concentrations in a staggered manner to cover as many time points as possible. The blood samples were collected on Day 1, Day 10 and during Week 4 and Week 7. The samples were collected in EDTA coated tubes and kept on ice. The plasma was separated by centrifugation (2000g for 3–5 min at 4 °C) and then frozen and kept at − 70 °C until analysis.
(§1) To measure MIV-711 concentrations, 10–50 µL of plasma or synovial fluid was mixed with 30–150 µL of acetonitrile, samples were centrifuged (10 min, 20,000g, 7 °C) and 5 µL of the supernatant was injected onto the LC–MS/MS system. The lower limit of quantification (LLOQ) was 1 nmol/L.

[3] = Synovial fluid concentrations of MIV-711 in dogs; conditions: dog
Procedure: Synovial fluid was collected from as many dogs as possible immediately before surgery and then again during necropsy from both operated and contralateral knees. The fluid was sampled directly without lavage using a syringe. The synovial fluid was transferred into tubes containing EDTA. The samples were spun in a centrifuge, and the supernatant was collected and stored at − 70 °C until analysis.
as §1

[4] = tested on: dogs subjected to partial medial meniscectomy; assay: Dog partial medial meniscectomy study, microscopic lesion width and depth ratio
Procedure: Measurements of width of total lesion of any type (chondrocyte death, cloning, fibrillation, proteoglycan loss) were taken across the tibial and femoral surfaces to give a total lesion width. Significant lesion width (matrix loss extending beyond superficial degeneration; i.e., lesions consisting of changes greater than just proteoglycan loss) was also determined in an attempt to convey possible treatment differences based on evaluation of more serious and permanent/irreversible cartilage matrix changes. Multiple depth measurements in areas of greatest lesion severity were taken for each of the 4 quadrants in each of the 3 anterior to posterior sections. These consisted of measurements taken from the surface (or estimated original surface when severe degenerative changes are present) to the point where cartilage appeared normal. A second measurement was taken in this same area to the depth of the tidemark so that the number expressed is a ratio of lesion depth vs. depth of tidemark. The mean values for each quadrant (medial to lateral) for the 3 anterior to posterior sections were determined as well as an overall mean for the joint. In this measurement, the minor changes consisting of proteoglycan loss only are not measured and only lesions with definite chondrocyte loss and sometimes fibrillation are included. This parameter should reflect a similar result to the significant width measurement as it is an indicator of beneficial effects on the more severe pathology.

[5] = individual animals of MIV-711 group, per section level (first line of animal, L2, L3)
[6] = single oral administration 30 µmol/kg
[7] = single oral administration 100 µmol/kg
[8] = dog, individual animals of MIV-711 group
[9] = dog, mean of zones, individual animals of MIV-711 group
[10] = dog, mean of zones, versus Vehicle
[11] = individual dogs of MIV-711 group, mean of the 4 quadrants
[12] = individual dogs of MIV-711 group, width of any cartilage lesion, mean of 3 sections
[13] = individual dogs of MIV-711 group, width of degeneration with score of 1 or greater

In the case of `C#C[C@@H]1CN(C(=O)[C@H](CC(C)C)NC(=O)c2ccc(-c3nc(N4CCN(C)CC4)sc3F)cc2)[C@@H]2C(=O)CO[C@H]12` [MIV-711], the “Cartilage Area: % Any Matrix Area” value ([1]; group Mean) is reported as 96%, the “Cartilage Area: % Viable Area” value ([1]; group Mean) is reported as 88% and the “Cartilage Area: % Any Matrix Area” value [1, 5] is reported as 100%. The “Cartilage Area: % Viable Area” value [1, 5] was 100%, the “Percent Inhibition, % Any Matrix Area” value ([1]; versus Vehicle) was -11% and the “Percent Inhibition, % Viable Area” value ([1]; versus Vehicle) was 8%. The “AUC0–24 h” value [2, 6] was 0.78 µM·h, the Cmax [2, 6] was 250 nM and the “AUC0–24 h” value [2, 7] was 7.0 µM·h. The Cmax [2, 7] was 1800 nM, the “MIV-711 levels in synovial fluid” value ([3]; 24 h after first dose and 24 h after last dose of 30 µmol/kg) was “low but measurable” and the “MIV-711 levels in synovial fluid, injured left knee compared to right knee” value ([3]; at sacrifice, 24 h after last dose of 30 µmol/kg) was “fivefold higher”. The “Femur Cartilage Degeneration Width Sig” value ([4]; MIV-711 group mean) was 994.3 µm, the “Femur Cartilage Degeneration Width Total” value ([4]; MIV-711 group mean) was 3661.0 µm and the “Femur Mean DRAMC (Depth Ratio Any Matrix Change)” value ([4]; MIV-711 group mean) was 0.084. For the same compound, the “Tibia Cartilage Degeneration Width Sig” value ([4]; MIV-711 group mean) was 2105.6 µm, the “Tibia Cartilage Degeneration Width Total” value ([4]; MIV-711 group mean) was 7336.0 µm and the “Tibia Mean DRAMC (Depth Ratio Any Matrix Change)” value ([4]; MIV-711 group mean) was 0.13. For the same compound, the “% inhibition, Femur Cartilage Degeneration Width Sig” value ([4]; MIV-711 group vs vehicle) was 11%, the “% inhibition, Femur Cartilage Degeneration Width Total” value ([4]; MIV-711 group vs vehicle) was 13% and the “% inhibition, Femur Mean DRAMC” value ([4]; MIV-711 group vs vehicle) was -9%. The “% inhibition, Tibia Cartilage Degeneration Width Sig” value ([4]; MIV-711 group vs vehicle) was 5%, the “% inhibition, Tibia Cartilage Degeneration Width Total” value ([4]; MIV-711 group vs vehicle) was 0% and the “% inhibition, Tibia Mean DRAMC” value ([4]; MIV-711 group vs vehicle) was 17%. For the same compound, the “Femur Depth Ratio Any Matrix Change Zone 1” value ([4]; dog, group Mean) was 0.15, the “Femur Depth Ratio Any Matrix Change Zone 2” value ([4]; dog, group Mean) was 0.13 and the “Femur Depth Ratio Any Matrix Change Zone 3” value ([4]; dog, group Mean) was 0.05. For the same compound, the “Femur Depth Ratio Any Matrix Change Zone 4” value ([4]; dog, group Mean) was 0.01, the “Tibia Depth Ratio Any Matrix Change Zone 1” value ([4]; dog, group Mean) was 0.05 and the “Tibia Depth Ratio Any Matrix Change Zone 2” value ([4]; dog, group Mean) was 0.31. For the same compound, the “Tibia Depth Ratio Any Matrix Change Zone 3” value ([4]; dog, group Mean) was 0.11, the “Tibia Depth Ratio Any Matrix Change Zone 4” value ([4]; dog, group Mean) was 0.04 and the “Femur Depth Ratio Any Matrix Change Zone 1” value [4, 8] was 0.08 and 0.07 and 0.01 and 0.42 and 0.19 and 0.10 and 0.09 and 0.22 and 0.50 and 0.06 and 0.23. The “Femur Depth Ratio Any Matrix Change Zone 2” value [4, 8] was 0.13 and 0.16 and 0.00 and 0.36 and 0.08 and 0.10 and 0.01 and 0.06 and 0.09 and 0.48 and 0.05 and 0.24, the “Femur Depth Ratio Any Matrix Change Zone 3” value [4, 8] was 0.04 and 0.03 and 0.00 and 0.33 and 0.01 and 0.02 and 0.21 and the “Femur Depth Ratio Any Matrix Change Zone 4” value [4, 8] was 0.00 and 0.01 and 0.02 and 0.06. The “Tibia Depth Ratio Any Matrix Change Zone 1” value [4, 8] was 0.06 and 0.08 and 0.01 and 0.09 and 0.03 and 0.13 and 0.00 and 0.15 and 0.11, the “Tibia Depth Ratio Any Matrix Change Zone 2” value [4, 8] was 0.28 and 0.23 and 0.35 and 0.24 and 0.27 and 0.36 and 0.39 and 0.22 and 0.47 and 0.33 and 0.30 and 0.19 and the “Tibia Depth Ratio Any Matrix Change Zone 3” value [4, 8] was 0.14 and 0.11 and 0.18 and 0.08 and 0.15 and 0.07 and 0.24 and 0.06 and 0.04 and 0.19 and 0.03 and 0.05. The “Tibia Depth Ratio Any Matrix Change Zone 4” value [4, 8] was 0.05 and 0.04 and 0.00 and 0.07 and 0.06 and 0.01 and 0.03 and 0.02, the “Femur Depth Ratio Any Matrix Change Mean” value ([4]; dog, mean of zones, group Mean) was 0.08 and the “Tibia Depth Ratio Any Matrix Change Mean” value ([4]; dog, mean of zones, group Mean) was 0.13. The “Femur Depth Ratio Any Matrix Change Mean” value [4, 9] was 0.06 and 0.07 and 0.00 and 0.28 and 0.04 and 0.03 and 0.01 and 0.08 and 0.31 and 0.12, the “Tibia Depth Ratio Any Matrix Change Mean” value [4, 9] was 0.13 and 0.11 and 0.17 and 0.09 and 0.15 and 0.16 and 0.07 and 0.14 and 0.20 and the “% inhibition, Femur Depth Ratio Any Matrix Change Mean” value [4, 10] was -9%. The “% inhibition, Tibia Depth Ratio Any Matrix Change Mean” value [4, 10] was 17%, the “% inhibition, Femur Depth Ratio Any Matrix Change Zone 1” value ([4]; dog, versus Vehicle) was -39% and the “% inhibition, Femur Depth Ratio Any Matrix Change Zone 2” value ([4]; dog, versus Vehicle) was 10%. The “% inhibition, Femur Depth Ratio Any Matrix Change Zone 3” value ([4]; dog, versus Vehicle) was -12%, the “% inhibition, Femur Depth Ratio Any Matrix Change Zone 4” value ([4]; dog, versus Vehicle) was 44% and the “% inhibition, Tibia Depth Ratio Any Matrix Change Zone 1” value ([4]; dog, versus Vehicle) was 55%. The “% inhibition, Tibia Depth Ratio Any Matrix Change Zone 2” value ([4]; dog, versus Vehicle) was -2%, the “% inhibition, Tibia Depth Ratio Any Matrix Change Zone 3” value ([4]; dog, versus Vehicle) was 23% and the “% inhibition, Tibia Depth Ratio Any Matrix Change Zone 4” value ([4]; dog, versus Vehicle) was 19%. The “Femur Mean DRAMC (Depth Ratio Any Matrix Change)” value [4, 11] was 0.04 and 0.06 and 0.07 and 0.00 and 0.28 and 0.03 and 0.01 and 0.08 and 0.31 and 0.12, the “Tibia Mean DRAMC (Depth Ratio Any Matrix Change)” value [4, 11] was 0.07 and 0.13 and 0.11 and 0.17 and 0.09 and 0.15 and 0.16 and 0.14 and 0.20 and the “Femur Cartilage Degeneration Width Total” value [4, 12] was 3885 µm and 4200 µm and 4410 µm and 630 µm and 5040 µm and 3780 µm and 2310 µm and 3990 µm and 5880 µm and 2730 µm and 3675 µm. The “Tibia Cartilage Degeneration Width Total” value [4, 12] was 6405 µm and 6510 µm and 8190 µm and 7560 µm and 8400 µm and 7980 µm and 6195 µm and 6930 µm and 6615 µm and 7245 µm and 7770 µm, the “Femur Cartilage Degeneration Width Sig” value [4, 13] was 0 µm and 735 µm and 1260 µm and 3465 µm and 200 µm and 968 µm and 420 µm and 1890 µm and 733 µm and 815 µm and 3360 µm and 1068 µm and the “Tibia Cartilage Degeneration Width Sig” value [4, 13] was 1638 µm and 1890 µm and 2310 µm and 1470 µm and 2520 µm and 2205 µm and 1155 µm and 3150 µm and 1575 µm and 1218 µm and 2163 µm and 4515 µm and 1785 µm.
